Measured values as given in the supplement of paper PMC10307832.

Experiments:
Experiment in all cases: relative viability (nuclei count vs DMSO), 5 days (fraction); higher = more cells survive
CAL-12T = tested on: CAL-12T
In short: (§1)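 One day after seeding in 1536-well plates, lung cancer cell lines were dosed by pin tool. Dosing was either single-drug or a fixed anchor-drug dose plus five library-drug doses (not always all listed) in √10 steps. After 5 days, nuclei were stained in one fix-and-stain step and counted on 4× images, and relative viability is the nuclei count of treated wells over that of vehicle wells, given as the median of duplicate plates.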

COR-L 105 = tested on: COR-L 105
In short: as §1

EKVX = tested on: EKVX
In short: as §1

EMC-BAC-2 = tested on: EMC-BAC-2
In short: as §1

H3255 = tested on: H3255
In short: as §1

LC-2-ad = tested on: LC-2-ad
In short: as §1

LK-2 = tested on: LK-2
In short: as §1

LXF-289 = tested on: LXF-289
In short: as §1

NCI-H1395 = tested on: NCI-H1395
In short: as §1

NCI-H1437 = tested on: NCI-H1437
In short: as §1

NCI-H1651 = tested on: NCI-H1651
In short: as §1

NCI-H1755 = tested on: NCI-H1755
In short: as §1

NCI-H1793 = tested on: NCI-H1793
In short: as §1

NCI-H1915 = tested on: NCI-H1915
In short: as §1

NCI-H1944 = tested on: NCI-H1944
In short: as §1

NCI-H2085 = tested on: NCI-H2085
In short: as §1

NCI-H2087 = tested on: NCI-H2087
In short: as §1

NCI-H2228 = tested on: NCI-H2228
In short: as §1

NCI-H2347 = tested on: NCI-H2347
In short: as §1

NCI-H661 = tested on: NCI-H661
In short: as §1

PC-3 [JPC-3] = tested on: PC-3 [JPC-3]
In short: as §1

SK-LU-1 = tested on: SK-LU-1
In short: as §1

SK-MES-1 = tested on: SK-MES-1
In short: as §1

How did the relative viability (CAL-12T; first compound 0.08 µM) turn out when `O=c1[nH]c2ccccc2n1C1CCN(CCCC(c2ccc(F)cc2)c2ccc(F)cc2)CC1` [Pimozide] + C[C@]1(O)C[C@@H](c2nc(-c3ccc4ccc(-c5ccccc5)nc4c3)c3c(N)nccn32)C1 [Linsitinib] (partner 1 µM) was run?
The relative viability was 0.745.

And the relative viability (CAL-12T; first compound 0.253 µM)?
The relative viability was 0.803.

What about the relative viability (CAL-12T; first compound 0.8 µM) of the same molecule?
The relative viability was 0.936.

What about the relative viability (CAL-12T; first compound 2.53 µM) of the same molecule?
The relative viability was 0.755.

And the relative viability (CAL-12T; first compound 8 µM)?
The relative viability was 0.788.

And the relative viability (COR-L 105; first compound 0.253 µM)?
Its relative viability is 1.01.

What about the relative viability (COR-L 105; first compound 0.8 µM) of the same molecule?
The relative viability was 0.795.

And the relative viability (COR-L 105; first compound 2.53 µM)?
The relative viability was 0.844.

And the relative viability (COR-L 105; first compound 8 µM)?
Its relative viability is 0.562.

And the relative viability (EKVX; first compound 0.253 µM)?
The relative viability was 0.837.

And the relative viability (EKVX; first compound 0.8 µM)?
The relative viability was 0.901.

And the relative viability (EKVX; first compound 2.53 µM)?
The relative viability was 0.969.

And the relative viability (EKVX; first compound 8 µM)?
Its relative viability is 0.953.

And the relative viability (EMC-BAC-2; first compound 0.08 µM)?
Its relative viability is 0.768.

What about the relative viability (EMC-BAC-2; first compound 0.253 µM) of the same molecule?
The relative viability was 0.787.

What about the relative viability (EMC-BAC-2; first compound 0.8 µM) of the same molecule?
Its relative viability is 0.828.

What about the relative viability (EMC-BAC-2; first compound 2.53 µM) of the same molecule?
Its relative viability is 0.828.

What about the relative viability (EMC-BAC-2; first compound 8 µM) of the same molecule?
Its relative viability is 0.749.

And the relative viability (H3255; first compound 0.253 µM)?
Its relative viability is 0.905.

And the relative viability (H3255; first compound 0.8 µM)?
Its relative viability is 0.96.

What about the relative viability (H3255; first compound 2.53 µM) of the same molecule?
The relative viability was 0.959.

What about the relative viability (H3255; first compound 8 µM) of the same molecule?
Its relative viability is 0.903.

And the relative viability (LC-2-ad; first compound 0.08 µM)?
The relative viability was 0.818.

And the relative viability (LC-2-ad; first compound 0.253 µM)?
Its relative viability is 0.819.

And the relative viability (LC-2-ad; first compound 0.8 µM)?
The relative viability was 0.797.

And the relative viability (LC-2-ad; first compound 2.53 µM)?
Its relative viability is 0.891.

What about the relative viability (LC-2-ad; first compound 8 µM) of the same molecule?
Its relative viability is 0.746.

What about the relative viability (LK-2; first compound 0.08 µM) of the same molecule?
Its relative viability is 0.52.

What about the relative viability (LK-2; first compound 0.253 µM) of the same molecule?
Its relative viability is 0.543.

What about the relative viability (LK-2; first compound 0.8 µM) of the same molecule?
The relative viability was 0.493.

And the relative viability (LK-2; first compound 2.53 µM)?
Its relative viability is 0.37.

And the relative viability (LK-2; first compound 8 µM)?
Its relative viability is 0.371.

What about the relative viability (LXF-289; first compound 0.08 µM) of the same molecule?
The relative viability was 0.928.

What about the relative viability (LXF-289; first compound 0.253 µM) of the same molecule?
The relative viability was 0.902.

What about the relative viability (LXF-289; first compound 0.8 µM) of the same molecule?
Its relative viability is 0.964.

And the relative viability (LXF-289; first compound 2.53 µM)?
Its relative viability is 0.946.

What about the relative viability (LXF-289; first compound 8 µM) of the same molecule?
The relative viability was 0.886.

What about the relative viability (NCI-H1395; first compound 0.08 µM) of the same molecule?
Its relative viability is 1.12.

What about the relative viability (NCI-H1395; first compound 0.253 µM) of the same molecule?
Its relative viability is 1.07.

And the relative viability (NCI-H1395; first compound 0.8 µM)?
The relative viability was 1.07.

And the relative viability (NCI-H1395; first compound 2.53 µM)?
The relative viability was 1.35.

And the relative viability (NCI-H1395; first compound 8 µM)?
The relative viability was 1.09.

What about the relative viability (NCI-H1437; first compound 0.08 µM) of the same molecule?
Its relative viability is 1.09.

What about the relative viability (NCI-H1437; first compound 0.253 µM) of the same molecule?
Its relative viability is 1.11.

What about the relative viability (NCI-H1437; first compound 0.8 µM) of the same molecule?
Its relative viability is 0.932.

And the relative viability (NCI-H1437; first compound 2.53 µM)?
Its relative viability is 0.899.

And the relative viability (NCI-H1437; first compound 8 µM)?
The relative viability was 0.893.

What about the relative viability (NCI-H1651; first compound 0.08 µM) of the same molecule?
Its relative viability is 0.897.

And the relative viability (NCI-H1651; first compound 0.253 µM)?
The relative viability was 1.

What about the relative viability (NCI-H1651; first compound 0.8 µM) of the same molecule?
The relative viability was 0.922.

And the relative viability (NCI-H1651; first compound 2.53 µM)?
Its relative viability is 0.97.

And the relative viability (NCI-H1651; first compound 8 µM)?
The relative viability was 0.951.

What about the relative viability (NCI-H1755; first compound 0.08 µM) of the same molecule?
The relative viability was 0.94.

And the relative viability (NCI-H1755; first compound 0.253 µM)?
Its relative viability is 1.02.

What about the relative viability (NCI-H1755; first compound 0.8 µM) of the same molecule?
The relative viability was 0.97.

What about the relative viability (NCI-H1755; first compound 2.53 µM) of the same molecule?
The relative viability was 0.939.

And the relative viability (NCI-H1755; first compound 8 µM)?
The relative viability was 0.845.

And the relative viability (NCI-H1793; first compound 0.08 µM)?
The relative viability was 0.871.

What about the relative viability (NCI-H1793; first compound 0.253 µM) of the same molecule?
Its relative viability is 0.612.

And the relative viability (NCI-H1793; first compound 0.8 µM)?
Its relative viability is 0.861.

And the relative viability (NCI-H1793; first compound 2.53 µM)?
The relative viability was 0.88.

And the relative viability (NCI-H1793; first compound 8 µM)?
The relative viability was 0.831.

And the relative viability (NCI-H1915; first compound 0.08 µM)?
The relative viability was 1.09.

And the relative viability (NCI-H1915; first compound 0.253 µM)?
The relative viability was 1.06.

And the relative viability (NCI-H1915; first compound 0.8 µM)?
The relative viability was 0.921.

And the relative viability (NCI-H1915; first compound 2.53 µM)?
Its relative viability is 1.09.

And the relative viability (NCI-H1915; first compound 8 µM)?
Its relative viability is 1.1.

And the relative viability (NCI-H1944; first compound 0.08 µM)?
The relative viability was 1.02.

And the relative viability (NCI-H1944; first compound 0.253 µM)?
The relative viability was 1.07.

And the relative viability (NCI-H1944; first compound 0.8 µM)?
The relative viability was 1.05.

And the relative viability (NCI-H1944; first compound 2.53 µM)?
The relative viability was 1.3.

And the relative viability (NCI-H1944; first compound 8 µM)?
The relative viability was 1.22.

What about the relative viability (NCI-H2085; first compound 0.08 µM) of the same molecule?
The relative viability was 0.916.

And the relative viability (NCI-H2085; first compound 0.253 µM)?
The relative viability was 0.934.

What about the relative viability (NCI-H2085; first compound 0.8 µM) of the same molecule?
Its relative viability is 0.818.

And the relative viability (NCI-H2085; first compound 2.53 µM)?
Its relative viability is 0.942.

What about the relative viability (NCI-H2085; first compound 8 µM) of the same molecule?
The relative viability was 0.762.

And the relative viability (NCI-H2087; first compound 0.08 µM)?
The relative viability was 0.904.

What about the relative viability (NCI-H2087; first compound 0.253 µM) of the same molecule?
The relative viability was 0.869.

What about the relative viability (NCI-H2087; first compound 0.8 µM) of the same molecule?
Its relative viability is 0.917.

What about the relative viability (NCI-H2087; first compound 2.53 µM) of the same molecule?
The relative viability was 1.04.

And the relative viability (NCI-H2087; first compound 8 µM)?
Its relative viability is 0.96.

And the relative viability (NCI-H2228; first compound 0.08 µM)?
Its relative viability is 0.475.

And the relative viability (NCI-H2228; first compound 0.253 µM)?
The relative viability was 0.909.

And the relative viability (NCI-H2228; first compound 0.8 µM)?
Its relative viability is 0.404.

And the relative viability (NCI-H2228; first compound 2.53 µM)?
The relative viability was 0.392.

And the relative viability (NCI-H2228; first compound 8 µM)?
Its relative viability is 0.291.

What about the relative viability (NCI-H2347; first compound 0.08 µM) of the same molecule?
The relative viability was 1.03.

What about the relative viability (NCI-H2347; first compound 0.253 µM) of the same molecule?
Its relative viability is 0.941.

What about the relative viability (NCI-H2347; first compound 0.8 µM) of the same molecule?
The relative viability was 0.836.

And the relative viability (NCI-H2347; first compound 2.53 µM)?
Its relative viability is 0.944.

What about the relative viability (NCI-H2347; first compound 8 µM) of the same molecule?
The relative viability was 0.958.

What about the relative viability (NCI-H661; first compound 0.08 µM) of the same molecule?
The relative viability was 0.659.

And the relative viability (NCI-H661; first compound 0.253 µM)?
Its relative viability is 0.422.

What about the relative viability (NCI-H661; first compound 0.8 µM) of the same molecule?
Its relative viability is 0.557.

What about the relative viability (NCI-H661; first compound 2.53 µM) of the same molecule?
Its relative viability is 0.513.

And the relative viability (NCI-H661; first compound 8 µM)?
Its relative viability is 0.536.

What about the relative viability (PC-3 [JPC-3]; first compound 0.253 µM) of the same molecule?
Its relative viability is 0.985.

And the relative viability (PC-3 [JPC-3]; first compound 0.8 µM)?
The relative viability was 0.896.

And the relative viability (PC-3 [JPC-3]; first compound 2.53 µM)?
Its relative viability is 0.983.

What about the relative viability (PC-3 [JPC-3]; first compound 8 µM) of the same molecule?
The relative viability was 0.883.

What about the relative viability (SK-LU-1; first compound 0.08 µM) of the same molecule?
The relative viability was 1.11.

What about the relative viability (SK-LU-1; first compound 0.253 µM) of the same molecule?
The relative viability was 1.12.

What about the relative viability (SK-LU-1; first compound 0.8 µM) of the same molecule?
Its relative viability is 0.902.

And the relative viability (SK-LU-1; first compound 2.53 µM)?
The relative viability was 0.732.

What about the relative viability (SK-LU-1; first compound 8 µM) of the same molecule?
Its relative viability is 0.851.

And the relative viability (SK-MES-1; first compound 0.08 µM)?
The relative viability was 0.993.

And the relative viability (SK-MES-1; first compound 0.253 µM)?
Its relative viability is 1.04.

What about the relative viability (SK-MES-1; first compound 0.8 µM) of the same molecule?
Its relative viability is 1.07.

And the relative viability (SK-MES-1; first compound 2.53 µM)?
The relative viability was 1.11.

And the relative viability (SK-MES-1; first compound 8 µM)?
The relative viability was 1.09.
